Assay results: article PMC2364081, “Antagonists of retinoic acid receptors (RARs) are potent growth inhibitors of prostate carcinoma cells” (British Journal of Cancer, 2001)

What was measured:
[1] = biological target: T1, RARα (Homo sapiens, UniProt P10276); assay: Binding to baculovirus-expressed RARα; parameters: made in house; details: baculovirus-expressed receptor
T1 sequence (P10276 1-462): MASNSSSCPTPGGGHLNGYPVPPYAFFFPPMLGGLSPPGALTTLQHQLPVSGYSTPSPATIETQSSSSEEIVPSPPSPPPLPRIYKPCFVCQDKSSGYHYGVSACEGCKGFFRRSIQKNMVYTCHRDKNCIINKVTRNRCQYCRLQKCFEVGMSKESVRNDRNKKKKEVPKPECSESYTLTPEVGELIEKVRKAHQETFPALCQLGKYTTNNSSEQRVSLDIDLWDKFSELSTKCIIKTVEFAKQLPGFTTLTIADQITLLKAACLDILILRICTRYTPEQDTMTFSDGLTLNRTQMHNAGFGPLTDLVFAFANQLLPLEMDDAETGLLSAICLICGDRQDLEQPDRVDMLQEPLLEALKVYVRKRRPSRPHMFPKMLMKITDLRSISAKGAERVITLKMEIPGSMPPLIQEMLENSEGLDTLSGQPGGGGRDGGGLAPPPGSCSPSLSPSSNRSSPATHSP
Excerpt: (§1) Prostate cancer is one of the most common cancers in European and American males and has a high mortality rate (Landis et al, 1998; Rosenthal, 1998). Early disease is managed conservatively in Europe although in selected patients surgery is curative. In advanced disease, androgen ablation can produce symptomatic improvement, but the tumour often re-emerges in an androgen- independent and incurable form. One proposed treatment for androgen-independent prostate carcinoma is differentiation ther- apy, in which agents such as all-trans-retinoic acid (ATRA), 9-cis- retinoic acid and 1, 25-dihydroxyvitamin D3 (D3 ) are used to induce growth arrest, differentiation and sometimes apoptosis of the tumour cells (Liang et al, 1999; de Vos et al, 1997; Skowronski et al, 1994; Hedlund et al, 1997). ATRA and synthetic analogues exert their biological effects by binding to two families of retinoid receptors, […]. These are ligand-dependent transcription factors of the steroid/thyroid hormone nuclear receptor superfamily (Chambon 1994; Boehm et al, 1995). Activated RARs bind to retinoic acid-responsive elements (RAREs) in the promoters of genes and thus regulate gene expression. They also antagonize the activity of the tran- scription factor AP1 and thereby down-regulate the expression of some AP1-activated genes (Nagpal et al, 1995). One approach to unravelling the contributions of RAR sub-types to these actions has been the development of synthetic retinoids with selective activities at individual RARs and RXRs. For example, the diaryl- acetylenic retinoids allow separation of transactivation and AP1 antagonism functions at RAR (Nagpal et al, 1995). Recently, compounds that are selective for particular RAR sub-types have been synthesized: these include both agonists and antagonists (Chandraratna, 1995; Teng et al, 1999; Johnson et al, 1999). The functional selectivity of these compounds may open the way to achieving differentiation or apoptosis of tumour cells with minimal systemic side effects (Chandraratna, 1995). Cell lines that are commonly used in the evaluation of investiga- tional agents for prostate cancer include LNCaP, DU-145 and PC- 3. […] These lines are relatively insensitive to growth inhibition and induction of apoptosis by ATRA and by synthetic agonists. […] Fenretinide (4HPR) induces apoptosis of LNCaP and of PC-3 cells at 1-5 M and 25 µM, respectively (Pienta et al, 1993; Heish and Wu, 1997). Pfahl and colleagues examined the growth inhibitory effects of a panel of receptor-selective retinoids against DU145 and PC-3 cells and achieved complete growth inhibition and induction of apoptosis between 1 M and 10 M (Lu et al, 1999). […] Antagonists of retinoic acid receptors (RARs) are potent growth inhibitors of prostate carcinoma cells LA Hammond1 , CH Van Krinks2 , J Durham2 , SE Tomkins2 , RD Burnett3 , EL Jones1 , RAS Chandraratna3 and G Brown2 Divisions of 1 Cancer Studies and of 2 Immunity and Infection, University of Birmingham Medical School, Edgbaston, Birmingham B15 2TT, UK and 3 Retinoid Research, Allergan Inc., Irvine, California, USA Summary Novel synthetic antagonists of retinoic acid receptors (RARs) have been developed. To avoid interference by serum retinoids when testing these compounds, we established serum-free grown sub-lines (>3 years) of the prostate carcinoma lines LNCaP, PC3 and DU145. […] A component(s) of serum and of LNCaP-conditioned medium diminishes the activity of antagonists: this factor is not the most likely candidates IGF-1 and EGF. In vitro studies of RAR antagonists together with data from RAR-null mice lead to the hypothesis that RAR-regulated gene transcription is necessary for the survival and maintenance of prostate epithelium. […]

[2] = biological target: T2, RARβ (Homo sapiens, UniProt P10826); assay: Binding to baculovirus-expressed RARβ; parameters: made in house; details: baculovirus-expressed receptor
T2 sequence (P10826 1-455): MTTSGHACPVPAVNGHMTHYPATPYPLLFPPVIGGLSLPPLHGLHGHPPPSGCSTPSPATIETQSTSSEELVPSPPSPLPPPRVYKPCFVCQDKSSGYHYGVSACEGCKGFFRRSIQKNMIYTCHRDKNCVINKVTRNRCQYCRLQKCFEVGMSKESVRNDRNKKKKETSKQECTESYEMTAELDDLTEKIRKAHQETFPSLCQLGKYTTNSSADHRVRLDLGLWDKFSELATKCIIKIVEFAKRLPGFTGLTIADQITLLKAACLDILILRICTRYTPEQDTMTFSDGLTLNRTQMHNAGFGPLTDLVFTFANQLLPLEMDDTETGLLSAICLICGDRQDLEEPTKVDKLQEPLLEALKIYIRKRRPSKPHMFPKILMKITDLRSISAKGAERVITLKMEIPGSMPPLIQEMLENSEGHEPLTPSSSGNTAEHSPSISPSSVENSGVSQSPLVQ
Excerpt: as §1

[3] = biological target: T3, RARγ (Homo sapiens, UniProt P13631); assay: Binding to baculovirus-expressed RARγ; parameters: made in house; details: baculovirus-expressed receptor
T3 sequence (P13631 1-454): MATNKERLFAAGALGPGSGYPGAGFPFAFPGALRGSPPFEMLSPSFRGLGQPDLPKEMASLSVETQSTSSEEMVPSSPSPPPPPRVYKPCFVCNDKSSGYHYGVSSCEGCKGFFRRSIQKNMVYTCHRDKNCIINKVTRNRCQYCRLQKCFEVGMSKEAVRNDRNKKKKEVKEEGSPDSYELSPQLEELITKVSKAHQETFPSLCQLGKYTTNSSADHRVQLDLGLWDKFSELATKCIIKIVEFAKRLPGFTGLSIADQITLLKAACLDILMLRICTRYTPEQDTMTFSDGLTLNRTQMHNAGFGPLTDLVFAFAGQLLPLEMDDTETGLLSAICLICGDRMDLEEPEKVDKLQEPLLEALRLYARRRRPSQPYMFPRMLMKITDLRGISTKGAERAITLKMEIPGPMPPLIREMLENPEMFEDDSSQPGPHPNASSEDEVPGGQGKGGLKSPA
Excerpt: as §1

[4] = biological target: T1, RARα; assay: Transactivation by RARα in doubly transfected CV-1 cells (MTV-TREp-LUC reporter); type: cell-based; parameters: expressed in transfected cells; host or cells: CV-1 cells
Excerpt: (§2) Prostate cancer is one of the most common cancers in European and American males and has a high mortality rate (Landis et al, 1998; Rosenthal, 1998). Early disease is managed conservatively in Europe although in selected patients surgery is curative. In advanced disease, androgen ablation can produce symptomatic improvement, but the tumour often re-emerges in an androgen- independent and incurable form. One proposed treatment for androgen-independent prostate carcinoma is differentiation ther- apy, in which agents such as all-trans-retinoic acid (ATRA), 9-cis- retinoic acid and 1, 25-dihydroxyvitamin D3 (D3 ) are used to induce growth arrest, differentiation and sometimes apoptosis of the tumour cells (Liang et al, 1999; de Vos et al, 1997; Skowronski et al, 1994; Hedlund et al, 1997). ATRA and synthetic analogues exert their biological effects by binding to two families of retinoid receptors, the RARs (RAR, RAR and RAR) and the RXRs (RXR, RXR and RXR). These are ligand-dependent transcription factors of the steroid/thyroid hormone nuclear receptor superfamily (Chambon 1994; Boehm et al, 1995). Activated RARs bind to retinoic acid-responsive elements (RAREs) in the promoters of genes and thus regulate gene expression. They also antagonize the activity of the tran- scription factor AP1 and thereby down-regulate the expression of some AP1-activated genes (Nagpal et al, 1995). One approach to unravelling the contributions of RAR sub-types to these actions has been the development of synthetic retinoids with selective activities at individual RARs and RXRs. For example, the diaryl- acetylenic retinoids allow separation of transactivation and AP1 antagonism functions at RAR (Nagpal et al, 1995). Recently, compounds that are selective for particular RAR sub-types have been synthesized: these include both agonists and antagonists (Chandraratna, 1995; Teng et al, 1999; Johnson et al, 1999). The functional selectivity of these compounds may open the way to achieving differentiation or apoptosis of tumour cells with minimal systemic side effects (Chandraratna, 1995). […]

[5] = biological target: T2, RARβ; assay: Transactivation by RARβ in doubly transfected CV-1 cells (MTV-TREp-LUC reporter); type: cell-based; parameters: expressed in transfected cells; host or cells: CV-1 cells; key to EC50 transactivation RARβ: NA: inactive; WA: weak partial agonist
Excerpt: as §2

[6] = biological target: T3, RARγ; assay: Transactivation by RARγ in doubly transfected CV-1 cells (MTV-TREp-LUC reporter); type: cell-based; parameters: expressed in transfected cells; host or cells: CV-1 cells; key to EC50 transactivation RARγ: NA: inactive; WA: weak partial agonist
Excerpt: as §2, with “1995).” for “1995). One approach to unravelling the contributions of RAR sub-types to these actions has been the development of synthetic retinoids with selective activities at individual RARs and RXRs. For example, the diaryl- acetylenic retinoids allow separation of transactivation and AP1 antagonism functions at RAR (Nagpal et al, 1995). Recently, compounds that are selective for particular RAR sub-types have been synthesized: these include both agonists and antagonists (Chandraratna, 1995; Teng et al, 1999; Johnson et al, 1999). The functional selectivity of these compounds may open the way to achieving differentiation or apoptosis of tumour cells with minimal systemic side effects (Chandraratna, 1995).”

[7] = test system: LNCaP ITS+ cells; assay: Plate colony formation (clonal proliferation) assay, serum-free (ITS+)-grown LNCaP; type: cell-based, human
Excerpt: as §1

[8] = test system: PC3 ITS+ cells; assay: Plate colony formation assay, serum-free (ITS+)-grown PC3; type: cell-based, human; details: 14 days
Excerpt: as §2

[9] = test system: DU145 ITS+ cells; assay: Plate colony formation assay, serum-free (ITS+)-grown DU145; type: cell-based, human; details: 14 days
Excerpt: as §2

[10] = test system: LNCaP, PC3 and DU145 cells; assay: Plate colony formation assay, stated over the three serum-free grown lines; type: cell-based, human
Excerpt: as §1

[11] = test system: FBS-grown LNCaP, DU145 and PC3 cells; assay: Plate colony formation assay, stated over the three FBS-grown lines; type: cell-based, human; details: 100 nM
Excerpt: as §2, with “1995).” for “1995). One approach to unravelling the contributions of RAR sub-types to these actions has been the development of synthetic retinoids with selective activities at individual RARs and RXRs. For example, the diaryl- acetylenic retinoids allow separation of transactivation and AP1 antagonism functions at RAR (Nagpal et al, 1995). Recently, compounds that are selective for particular RAR sub-types have been synthesized: these include both agonists and antagonists (Chandraratna, 1995; Teng et al, 1999; Johnson et al, 1999). The functional selectivity of these compounds may open the way to achieving differentiation or apoptosis of tumour cells with minimal systemic side effects (Chandraratna, 1995).”

[12] = test system: HL60 cells; assay: ATRA-induced differentiation of HL60 cells to neutrophils (nitroblue tetrazolium reduction); type: cell-based, human; details: antagonist at 100 nM added with 100 nM ATRA
Excerpt: as §2, with “1995).” for “1995). One approach to unravelling the contributions of RAR sub-types to these actions has been the development of synthetic retinoids with selective activities at individual RARs and RXRs. For example, the diaryl- acetylenic retinoids allow separation of transactivation and AP1 antagonism functions at RAR (Nagpal et al, 1995). Recently, compounds that are selective for particular RAR sub-types have been synthesized: these include both agonists and antagonists (Chandraratna, 1995; Teng et al, 1999; Johnson et al, 1999). The functional selectivity of these compounds may open the way to achieving differentiation or apoptosis of tumour cells with minimal systemic side effects (Chandraratna, 1995).”

[13] = test system: HL60 cells; assay: Clonal growth of single serum-free grown HL60 cells in microtitre wells; type: cell-based, human; details: 100 nM
Excerpt: as §1

[14] = test system: breast carcinoma lines; parameters: method as in Fanjul et al, 1998; details: low serum (0.5%); ref Fanjul et al, 1998; cited from earlier work

CC(C)N1CCC(C)(C)c2cc(C(=O)Nc3ccc(C(=O)O)c(F)c3)c(O)cc21 [AGN195153]
Kd [1]: 40 nM
Kd [2]: > 5000 nM
Kd [3]: > 5 µM
EC50 [4]: 130 nM
EC50 transactivation RARβ [5]: WA
EC50 transactivation RARγ [6]: WA

CC1(C)CCSc2ccc(C#Cc3ccc(C(=O)O)cn3)cc21 [AGN190299]
Kd [1]: 616 nM
Kd [2]: 41 nM
Kd [3]: 0.057 µM
EC50 [4]: > 1000 nM
EC50 [5]: 18 nM
EC50 [6]: 42 nM

Cc1ccc(C2=CC(C)(C)Oc3c(Br)cc(C(=O)Nc4ccc(C(=O)O)c(F)c4)cc32)cc1 [AGN194301]
IC50 ([7]; LNCaP, serum-free (ITS+), 14 days): 203 nM
IC50 [8]: 235 nM
IC50 [9]: 201 nM
inhibition of colony formation ([10]; 100 nM, three lines in ITS+ medium): 42-74%
IC50 ([10]; stated over all three serum-free grown lines, read-out: concentration inhibiting colony formation by 50% (IC50)): ~200 nM
inhibition of colony formation [11]: 0-19%
percentage of mature cells [12]: 1%
viability of the single cells [13]: > 95%
effect on clonal growth of HL60 cells ([13]; 4 days): did not adversely affect
number of viable cells at day 4 ([13]; control 18): 22
cloning efficiency ([13]; same as untreated): 90-93%
Kd [1]: 3 nM
Kd [2]: 320 nM
Kd [3]: 7.25 µM

EGF: Epidermal growth factor (R & D, Abingdon, UK) (NSDSECPLSHDGYCLHDGVCMYIEALDKYACNCVVGYIGERCQYRDLKWWELR; UniProt P01133 971-1023, looked up)
reversal of the inhibition of colony formation by 100 nM AGN194310 ([7]; EGF at 1, 10 and 20 ng/ml): did not reverse

COCCOCOc1ccc(C(=O)/C=C/c2ccc(C(=O)O)cc2)cc1C12CC3CC(CC(C3)C1)C2 [MX781]
concentration abolishing cell proliferation [14]: > 1 µM
